Legend:
Assay type in all cases: in vivo
[1] = tested on: Echinochloa crusgalli; experiment: Post-emergence test experiment, Echinochloa crusgalli; details: 1000 g a.i./ha, 3 weeks in greenhouse, fresh weight inhibition
Outline: (§1)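 Seeds sown under 0.5-2 cm soil; sprayed post-emergence at 2-3 leaves with acetone/tween-80 solution plus 1.5 L/ha methyl oleate EC; greenhouse 3 wk; % fresh weight inhibition.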

[2] = tested on: Digitaria sanguinalis; experiment: Post-emergence test experiment, Digitaria sanguinalis; details: 1000 g a.i./ha, 3 weeks in greenhouse, fresh weight inhibition
Outline: as §1

[3] = tested on: Monocotyledonous and dicotyledonous weed seeds and main crop seeds; experiment: Post-emergence test experiment, other weeds and crops (Table 4, 1000 g a.i./ha); details: 3 weeks in greenhouse, fresh weight inhibition
Outline: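 Growth inhibition is scored on fresh weight. Spray solutions were made in acetone with tween-80, diluted in water, plus 1.5 L/ha methyl oleate emulsible concentrate. Plants from greenhouse-grown weed and crop seeds were treated post-emergence at 2-3 leaves, 2 weeks after sowing.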

SMILES	Activity level (growth inhibition rate), Echinochloa crusgalli [1]	Activity level (growth inhibition rate), Digitaria sanguinalis [2]	Activity level (growth inhibition rate), Abutilon theophrasti Medic. [3]	Activity level (growth inhibition rate), Galium aparine [3]	Activity level (growth inhibition rate), Monochoria Vaginalis [3]
CC(Oc1nc(F)c(Cl)c(N)c1Cl)C(=O)SCc1cccc(F)c1 (centres unmarked) [Compound 2-311]	5 (Level 5: the growth inhibition rate is greater than 85%)	5 (Level 5: the growth inhibition rate is greater than 85%)	5 (Level 5: the growth inhibition rate is greater than 85%)	5 (Level 5: the growth inhibition rate is greater than 85%)	5 (Level 5: the growth inhibition rate is greater than 85%)
C[C@@H](Oc1nc(F)c(Cl)c(N)c1Cl)C(=O)OCc1cnn(C)c1 [Compound 2-354]	5 (Level 5: the growth inhibition rate is greater than 85%)	5 (Level 5: the growth inhibition rate is greater than 85%)	5 (Level 5: the growth inhibition rate is greater than 85%)	5 (Level 5: the growth inhibition rate is greater than 85%)	5 (Level 5: the growth inhibition rate is greater than 85%)
C[C@@H](Oc1nc(F)c(Cl)c(N)c1Cl)C(=O)SCc1cccc(C#N)c1 [Compound 2-336]	5 (Level 5: the growth inhibition rate is greater than 85%)	5 (Level 5: the growth inhibition rate is greater than 85%)	5 (Level 5: the growth inhibition rate is greater than 85%)	5 (Level 5: the growth inhibition rate is greater than 85%)	5 (Level 5: the growth inhibition rate is greater than 85%)
C[C@@H](Oc1nc(F)c(Cl)c(N)c1Cl)C(=O)SC(C)(C)C [Compound 2-84]	5 (Level 5: the growth inhibition rate is greater than 85%)	5 (Level 5: the growth inhibition rate is greater than 85%)	5 (Level 5: the growth inhibition rate is greater than 85%)	5 (Level 5: the growth inhibition rate is greater than 85%)	5 (Level 5: the growth inhibition rate is greater than 85%)
CC(Oc1nc(F)c(Cl)c(N)c1Cl)C(=O)Sc1cccc(Cl)c1 (centres unmarked) [Compound 2-357]	5 (Level 5: the growth inhibition rate is greater than 85%)	5 (Level 5: the growth inhibition rate is greater than 85%)	5 (Level 5: the growth inhibition rate is greater than 85%)	5 (Level 5: the growth inhibition rate is greater than 85%)	5 (Level 5: the growth inhibition rate is greater than 85%)
C[C@@H](Oc1nc(F)c(Cl)c(N)c1Cl)C(=O)OCCF [Compound 2-276]	5 (Level 5: the growth inhibition rate is greater than 85%)	5 (Level 5: the growth inhibition rate is greater than 85%)	5 (Level 5: the growth inhibition rate is greater than 85%)	5 (Level 5: the growth inhibition rate is greater than 85%)	5 (Level 5: the growth inhibition rate is greater than 85%)
COC(=O)[C@@H](C)Oc1nc(F)c(Cl)c(NCc2ccc(C(F)(F)F)o2)c1Cl [Compound 2-387]	5 (Level 5: the growth inhibition rate is greater than 85%)	5 (Level 5: the growth inhibition rate is greater than 85%)	5 (Level 5: the growth inhibition rate is greater than 85%)	5 (Level 5: the growth inhibition rate is greater than 85%)	5 (Level 5: the growth inhibition rate is greater than 85%)
CCCC(C)CSC(=O)[C@@H](C)Oc1nc(F)c(Cl)c(N)c1Cl (some centres unmarked) [Compound 2-104]	5 (Level 5: the growth inhibition rate is greater than 85%)	5 (Level 5: the growth inhibition rate is greater than 85%)	5 (Level 5: the growth inhibition rate is greater than 85%)	5 (Level 5: the growth inhibition rate is greater than 85%)	5 (Level 5: the growth inhibition rate is greater than 85%)
CCOCOC(=O)[C@@H](C)Oc1nc(F)c(Cl)c(N)c1Cl [Compound 2-370]	5 (Level 5: the growth inhibition rate is greater than 85%)	5 (Level 5: the growth inhibition rate is greater than 85%)	5 (Level 5: the growth inhibition rate is greater than 85%)	5 (Level 5: the growth inhibition rate is greater than 85%)	5 (Level 5: the growth inhibition rate is greater than 85%)
C[C@@H](Oc1nc(F)c(Cl)c(N)c1Cl)C(=O)SCc1ccccc1C#N [Compound 2-334]	5 (Level 5: the growth inhibition rate is greater than 85%)	5 (Level 5: the growth inhibition rate is greater than 85%)	5 (Level 5: the growth inhibition rate is greater than 85%)	5 (Level 5: the growth inhibition rate is greater than 85%)	5 (Level 5: the growth inhibition rate is greater than 85%)
C#CCOC(=O)C(C)Oc1nc(F)c(Cl)c(N)c1Cl (centres unmarked) [Compound 2-275]	5 (Level 5: the growth inhibition rate is greater than 85%)	5 (Level 5: the growth inhibition rate is greater than 85%)	5 (Level 5: the growth inhibition rate is greater than 85%)	5 (Level 5: the growth inhibition rate is greater than 85%)	5 (Level 5: the growth inhibition rate is greater than 85%)
C[C@@H](Oc1nc(F)c(Cl)c(N)c1Cl)C(=O)OCc1cccs1 [Compound 2-350]	5 (Level 5: the growth inhibition rate is greater than 85%)	5 (Level 5: the growth inhibition rate is greater than 85%)	5 (Level 5: the growth inhibition rate is greater than 85%)	5 (Level 5: the growth inhibition rate is greater than 85%)	5 (Level 5: the growth inhibition rate is greater than 85%)
C[C@@H](Oc1nc(F)c(Cl)c(N)c1Cl)C(=O)OC(C)(C)C [Compound 2-83]	5 (Level 5: the growth inhibition rate is greater than 85%)	5 (Level 5: the growth inhibition rate is greater than 85%)	5 (Level 5: the growth inhibition rate is greater than 85%)	5 (Level 5: the growth inhibition rate is greater than 85%)	5 (Level 5: the growth inhibition rate is greater than 85%)
C[C@@H](Oc1nc(F)c(Cl)c(N)c1Cl)C(=O)SCc1ccncc1 [Compound 2-345]	5 (Level 5: the growth inhibition rate is greater than 85%)	5 (Level 5: the growth inhibition rate is greater than 85%)	5 (Level 5: the growth inhibition rate is greater than 85%)	5 (Level 5: the growth inhibition rate is greater than 85%)	5 (Level 5: the growth inhibition rate is greater than 85%)
CC(Oc1nc(F)c(Cl)c(N)c1Cl)C(=O)SCc1ccccc1Br (centres unmarked) [Compound 2-321]	5 (Level 5: the growth inhibition rate is greater than 85%)	5 (Level 5: the growth inhibition rate is greater than 85%)	5 (Level 5: the growth inhibition rate is greater than 85%)	5 (Level 5: the growth inhibition rate is greater than 85%)	5 (Level 5: the growth inhibition rate is greater than 85%)
CCC(CC)OC(=O)[C@@H](C)Oc1nc(F)c(Cl)c(N)c1Cl [Compound 2-97]	5 (Level 5: the growth inhibition rate is greater than 85%)	5 (Level 5: the growth inhibition rate is greater than 85%)	5 (Level 5: the growth inhibition rate is greater than 85%)	5 (Level 5: the growth inhibition rate is greater than 85%)	5 (Level 5: the growth inhibition rate is greater than 85%)
